Data reported in patent US20240041828A1, “Combination Therapeutics Comprising Nrf2 Agonists and Antivirals for Treating Viral Infections” (The Regents of the University of California, priority 2022, published 2024).
“Also recorded” adds a separate entry of the source. Structures can show the parent of a compound that is named as a salt. Where two headings read alike, the source gives them in different places.

Legend:
Format in all cases: cell-based
[1] = system: SARS-coV-2 Omicron variant
[2] = system: B.1.617.2 (Delta) SARS-CoV-2 variant; test: microbe, parasite or virus in culture; details: for IC50: Severe acute respiratory syndrome coronavirus 2, A549
[3] = system: B.1.617.2 (Delta) SARS-CoV-2 variant

Row | SMILES | IC50 compared to comparator drug [1] | anti-SARS-CoV-2 activity (words, figure legend) [1] | IC50 compared to comparator drug [2] | anti-SARS-CoV-2 activity (words, figure legend) [2] | IC50 [2] [µM] | drug interaction (words, figure legend) [3] | better antiviral effect in ALI HAE system compared to Paxlovid ([1]; ALI HAE system) | anti-SARS-CoV-2 activity (words, figure legend) ([1]; methanesulfonate) | IC50 compared to comparator drug ([2]; methanesulfonate) | anti-SARS-CoV-2 activity (words, figure legend) ([2]; methanesulfonate) | drug interaction (words, figure legend) ([3]; methanesulfonate)
1 | COC(=O)/C=C/C(=O)OC [DMF, Dimethyl fumarate] | IC50 that was similar to Paxlovid™; also recorded: higher than molnupiravir IC50 | stronger anti-SARS-CoV-2 activity in multilayer human airway cell culture than molnupiravir | higher IC50 compared to Paxlovid™; also recorded: higher IC50 compared to molnupiravir | anti-SARS-CoV-2 activity in single layer human airway cells that is lower than Paxlovid™; also recorded: strong anti-SARS-CoV-2 activity in single layer human airway cells that is higher than molnupiravir | 16.7 | additive anti-SARS-CoV-2 activity with Paxlovid™; also recorded: additive anti-SARS-CoV-2 activity with molnupiravir | – | – | – | – | –
2 | COC1=C(OC)C(=O)C(CCCCCCCCCC[P+](c2ccccc2)(c2ccccc2)c2ccccc2)=C(C)C1=O.CS(=O)(=O)[O-] [Mito-MES, 10-(4,5-dimethoxy-2-methyl-3,6-dioxo-1,4-cyclohexadienyl) decyl triphenylphosphonium methanesulfonate] | higher than Paxlovid™ IC50 | – | – | – | 0.144 | – | about 1000 fold | stronger anti-SARS-CoV-2 activity in multilayer human airway cell culture than Paxlovid™; also recorded: stronger anti-SARS-CoV-2 activity in multilayer human airway cell culture than molnupiravir | higher IC50 compared to molnupiravir | strong anti-SARS-CoV-2 activity in single layer human airway cells that is similar to Paxlovid™; also recorded: strong anti-SARS-CoV-2 activity in single layer human airway cells that is higher than molnupiravir | additive anti-SARS-CoV-2 activity with Paxlovid™; also recorded: additive anti-SARS-CoV-2 activity with molnupiravir
3 | CC(C)C(=O)OC[C@H]1O[C@@H](n2ccc(NO)nc2=O)[C@H](O)[C@@H]1O [molnupiravir, Molnupiravir] | – | – | – | – | 31 | – | – | – | – | – | –
